According to PMC8981457, “Cdyl Deficiency Brakes Neuronal Excitability and Nociception through Promoting Kcnb1 Transcription in Peripheral Sensory Neurons” (Advanced Science, 2022):
Read-outs that look alike come from different tables or passages of the source. Values belong to the molecule of their own block, whether it stands above or below them. *1 amine or outer side, *2 acyl side, *3 side chain or, on linkers, in order; H or OH if unused. Where a SMILES comes first, the peptide text is derived from it. [ ]: non-standard residue; d: D form. X1 = N6‑isopropyl‑N6‑((1-methyl-1H-imidazol-5-yl)methyl)Lys, CC(C)N(CCCC[C@H](N[*:1])C(=O)[*:2])Cc1cncn1C; X2 = CC(C)N(CCCC[C@H](N[*:1])C(=O)[*:2])Cc1cncn1C; Phe(F5) = N[C@@H](Cc1c(F)c(F)c(F)c(F)c1F)C(=O)O; NMeA = CN[C@@H](C)C(=O)O; Inp = O=C(O)C1CCNCC1

Columns and labels:
CDYL chromodomain = target: T1, CDYL chromodomain (Homo sapiens, UniProt Q9Y232); assay: isothermal titration calorimetry; type: binding
T1 construct: chromodomain residues 1-78 of NP_004815, N-terminal GST tag (pGEX4T) removed by thrombin for ITC, E. coli Rosetta2 BL21(DE3)pLysS
T1 sequence (Q9Y232 1-78 isoform Q9Y232-2): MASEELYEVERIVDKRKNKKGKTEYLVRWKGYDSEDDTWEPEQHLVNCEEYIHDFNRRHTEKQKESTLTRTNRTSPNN

[1] = target: T2, chromodomain of CDYL2 (residues 1-75 of NP_689555) (UniProt Q8N8U2 1-75); assay: AlphaScreen or HTRF; TR-FRET competition assay for CDYL2, dose-response; 20 mM tris pH 7.5, 150 mM NaCl, 0.05% Tween 20, 2 mM DTT; 1 h equilibration; tracer not named (ref. 30); settings: both partners purified
T2 construct: chromodomain Y-like protein 2 (CDYL2), chromodomain, residues 1-75 of NP_689555; source: E. coli Rosetta2 BL21(DE3)pLysS, purified (HisTrap FF, Superdex 75)
T2 sequence (looked up): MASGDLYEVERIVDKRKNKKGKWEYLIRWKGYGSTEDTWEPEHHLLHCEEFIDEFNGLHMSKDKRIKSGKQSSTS

[2] = target: T3, chromodomain of MPP8 (residues 55-116 of NP_059990) (UniProt Q99549-1 55-116); assay: not stated; selectivity of UNC6261 among chromodomains (Figure S7); method not given; settings: both partners purified
T3 construct: M-phase phosphoprotein 8 (MPP8), chromodomain, residues 55-116 of NP_059990; source: E. coli Rosetta2 BL21(DE3)pLysS, purified (HisTrap FF, Superdex 75)
T3 sequence (looked up): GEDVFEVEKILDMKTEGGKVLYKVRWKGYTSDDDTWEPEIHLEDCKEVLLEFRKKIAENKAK

Kd (CDYL chromodomain; read-out: Kd): 139 ± 3.3 nM
Molecule: COC(=O)[C@H](CO)NC(=O)[C@H](CCCCN(Cc1cncn1C)C(C)C)NC(=O)[C@H](Cc1ccccc1)NC(=O)[C@H](C)NC(=O)[C@H](Cc1c(F)c(F)c(F)c(F)c1F)NC(=O)C1CCNCC1 [UNC6261, Methyl N ^6‐isopropyl‐N ^6‐((1‐methyl‐1H‐imidazol‐5‐yl)methyl)‐N ^2‐((S)‐3‐(perfluorophenyl)‐2‐(piperidine‐4‐carboxamido)propanoyl)‐L‐alanyl‐L‐phenylalanyl‐L‐lysyl‐L‐serinate] (H-[Inp][Phe(F5)]AF[X2]S-OMe)

Kd (CDYL chromodomain; read-out: no measurable binding): > 50000 nM
Molecule: COC(=O)[C@H](CO)NC(=O)[C@H](CCCCN(Cc1cncn1C)C(C)C)NC(=O)[C@H](Cc1ccccc1)NC(=O)[C@H](C)N(C)C(=O)[C@H](Cc1c(F)c(F)c(F)c(F)c1F)NC(=O)C1CCNCC1 [UNC7394, Methyl N ^6‐isopropyl‐N ^6‐((1‐methyl‐1H‐imidazol‐5‐yl)methyl)‐N ^2‐N‐methyl‐N‐((S)‐3‐(perfluorophenyl)‐2‐(piperidine‐4‐carboxamido)propanoyl)‐L‐alanyl‐L‐phenylalanyl‐L‐lysyl‐L‐serinate] (H-[Inp][Phe(F5)][NMeA]F[X2]S-OMe)

IC50 [1]: 81 ± 16 nM
fold selectivity for CDYL over MPP8 [2]: 13 fold
B1: UNC6261 (peptide)
peptide: {piperidine‑4‑carbonyl}-[Phe(F5)]AF[X1]S-OMe
notes: peptidomimetic pentapeptide; F1 stands for pentafluorophenylalanine, K4 for the dialkylated lysine mimetic; also called CDYL antagonist; source: synthetic, purified by reverse phase flash chromatography (TFA salt)
